Measurements reported in patent US20140127185A1, “METHODS AND COMPOSITIONS USING NEUROPROTECTIVE STEROIDS AND THROMBOLYTIC AGENTS” (priority 2012, published 2014).

Columns and labels:
[1] = system: MMP-2; test: Permanent MCAO in rats: MMP-2 in peri-infarct cortex (Western blot, gelatin zymography, immunohistochemistry); format: in vivo, rat; details: for Expression of MMP-2 (immunohistochemistry): pMCAO, brain section; for Expression of MMP-2 (immunohistochemistry) / MMP-2 activity/levels (gelatin zymography): peri-infarct cortex at 72 hours; for Expression of MMP-2 (Western blot) / MMP-2 activity/levels (gelatin zymography): permanent MCAO; for Expression of MMP-2 (Western blot): 8 mg/kg i.p. 1 hour and s.c. 6 hours post-occlusion, peri-infarct cortex at 72 hours post-MCAO; for MMP-2 activity/levels (gelatin zymography): 8 mg/kg
Excerpt: (§1) Permanent focal cerebral ischemia is induced in the rat by direct ligation of the MCA. Peri-operative procedures and physiological monitoring are done similarly to those for thrombotic stroke surgery. Briefly, under anesthesia, the left CCA is isolated through a ventral midline neck incision and ligated permanently with a 4-0 surgical silk ligature. The left temporoparietal region of the head is shaved and a 2-cm incision is made vertically between the orbit and the ear canal. The underlying temporalis muscle is excised, and under direct visualization, the […] MCA is exposed through a 2-mm burr hole drilled 2 mm rostral to the fusion of the zygomatic arch with the squamosal bone. Drilling is performed under saline irrigation to the area throughout the procedure to prevent heat injury. […] The site of the occlusion is proximal to the MCA bifurcation, but distal to the origin of the lenticulostriate arteries. Using fine forceps, the dura and arachnoid overlying the MCA is opened and cut. The MCA is cauterized and cut permanently to […] recanalization using a bipolar electrocauterizer without damaging the brain surface. The temporalis muscle and skin is closed in layers, and rats allowed to recover from anesthesia on the heating pad.
(§2) All experimental treatments by injection are made in stock solutions using HBC (2-hydroxypropyl-β-cyclodextrin, 25% w/v solution in H2O) as the solvent. The HBC vehicle allows progesterone and allopregnanolone to be dissolved in a non-toxic aqueous solution. The initial dose of progesterone is given intraperitoneally for rapid absorption; all other injections are given subcutaneously. A simlar protocol may be followed for allopregnanolone.
(§3) Peri-infarct cortical tissue is processed for protein analysis. Tissues are homogenized in T-per (Pierce, Rockford, Ill.) containing protease inhibitor cocktail (P8340, Sigma). Homogenates are centrifuged for 15 minutes at 13,000 g. 40 μg of total protein is separated on 8-12% gel and transferred onto polyvinylidene difluoride (Millipore, Mass., USA; PVDF) membranes at 300 mA for 2 hours. To measure the level of immunoglobulin, the membranes were incubated overnight at 4° C. with anti Rat IgG conjugated to biotin. bEND 3 cells are subjected to hypoxia/reperfusion for 9 hours and then lysed on ice in 100 μl of RIPA buffer. Cell lysated are boiled and then electrophoresed in 12% SDS-PAGE acrylamide gels, transferred onto PVDF membranes, and incubated for 1 hour in TBS-T (tris-buffered saline and 0.1% Tween 20) containing 5% bovine serum albumin (BSA). Membranes are then incubated overnight at 4° C. with primary antibodies against occludin (Invitrogen, Calif., USA; 1:1000), claudin-5 (Invitrogen; 1:1000), and ZO-1 (Invitrogen; 1:1000), washed in TBS-T, and incubated for 1 hour at room temperature with corresponding peroxidase-conjugated secondary antibodies (1:5000; KPL, Gaithersburg, Md.). All blots are stripped and re-incubated with β-actin antibodies (1:5000, Sigma) as a loading control. The peroxidase reaction is developed with an ECL-plus detection kit (Amersham BioScience, Piscataway, N.J.). Intensity of the bands is measured by an Image Gauge version. 4.0 program (FUJI Photo Film Co., Ltd).
(§4) Rats were randomly assigned to receive progesterone (n=5), allopregnanolone (n=5), or vehicle (n=5). Progesterone and allopregnanolone (8 mg/kg) were dissolved in 22.5% 2-hydroxypropyl-β-cyclodextrin (25% w/v solution in water) (HBC) and given by intraperitoneal injection 1 hour post-occlusion. An additional 8 mg/kg subcutaneous injection was given 6 hours after middle cerebral artery occlusion (MCAO).
(§5) The rats were euthanized at 72 hours post-MCAO. The peri-infarct region was sampled using a 4-mm tissue punch.

[2] = system: MMP-9; test: Permanent MCAO in rats: MMP-9 in peri-infarct cortex (Western blot, gelatin zymography, immunohistochemistry); format: in vivo, rat; details: for Expression of MMP-9 (immunohistochemistry): pMCAO, brain section; for Expression of MMP-9 (immunohistochemistry) / MMP-9 activity/levels (gelatin zymography): peri-infarct cortex at 72 hours; for Expression of MMP-9 (Western blot) / MMP-9 activity/levels (gelatin zymography): permanent MCAO; for Expression of MMP-9 (Western blot): 8 mg/kg i.p. 1 hour and s.c. 6 hours post-occlusion, peri-infarct cortex at 72 hours post-MCAO; for MMP-9 activity/levels (gelatin zymography): 8 mg/kg
Excerpt: as §1, §2, §3, §4, §5

[3] = system: blood-brain barrier (BBB); test: BBB disruption: serum IgG in ischemic cortex by Western blot; format: in vivo, rat; details: progesterone 8 mg/kg, s.c.; with tPA; 24 hours after injury
[4] = system: occludin; test: Occludin in H/R-treated bEND3 cells (Western blot, immunofluorescence); format: cell-based, mouse
Experimental: (§6) An immortalized mouse brain endothelial cell line (bEND 3) is purchased from American Type Culture Collection (ATCC, VA, USA) and cultured in Dulbecco's modified Eagle Medium (DMEM, ATCC) supplemented with 10% fetal bovine serum (ATCC). bEND 3 cells are seeded onto the luminal side of a filter (0.4 μm pore size; Corning, Lowell, MCA) coated with fibronectin (5 μg/ml) in 12-well plates for a transendothelial electrical resistance (TEER) test; and in 100-mm dishes for Western blot studies. Cell cultures are incubated at 37° C. in a 5%/95% mixture of CO2 and atmospheric air, and the medium is replaced every 3 days.
as §3
The bEnd 3 cells grown to confluence on coverslips are subjected to the indicated treatments. […]
(§7) To mimic ischemia-like conditions in vitro, immortalized mouse brain endothelial (bEND3) cells were exposed to 6 hours of hypoxia and 3 hours of reoxygeneation with or without the administration of tPA at a dose of 20 μ/ml. […] BBB integrity was evaluated by transendothelial membrane electrical resistance (TEER) measurement, MMP-9 activity, and the alteration of tight junction proteins following in vitro H/R injury.

[5] = system: MMP-9; test: MMP-9 levels in bEND3 cells exposed to H/R and tPA; format: cell-based, mouse; details: bEND3 cells exposed to H/R and tPA for 9 hours; progesterone pretreatment
Experimental: The bEnd 3 cells grown to confluence on coverslips are subjected to the indicated treatments. For […], cells are washed three times with PBS, fixed in 3% paraformaldehyde for 10 minutes, permeabilized with 02% Triton X-100 in PBS for 10 minutes and blocked with 10% BSA and 0.1% Triton X-100 in PBS for 1 hour. After washing with PBS, the monolyers are incubated with a primary antibody for occludin (Invitrogen, 1:200) and MMP-9 (Abeam, Mass., USA, 1:200) overnight at 4° C. The cell monolayers are then washed 3 times with PBS and incubated with Alexa Fluor 488 anti-rabbit and orange anti-mouse (Molecular Probes, Eugene, Oreg.) for 1 hour. After washing in PBS, the coverslips are mounted on glass slides with Vectasheild with dapi (Vecta Laboratories).
as §7
To directly determine MMP-9 activity after ischemia, proteolytic activity of MMP-9 was measured using a fluorescence resonance energy transfer peptide. […]

[6] = system: bEND3 cells; test: Transendothelial electrical resistance (TEER) after hypoxia/reperfusion (H/R); format: cell-based, mouse
Experimental: as §6
The electrical resistance across the membrane are measured using an Millicell ERS Voltohmmeter (Millipore, Billerica, Mass.). The extracellular matrix-treated Transwell inserts are placed in 12-well plates containing culture medium and then used to measure the background resistance. The resistance measurements of these blank filters are then subtracted from those of filters with cells. Values are shown as Q. based on culture inserts.
To mimic ischemia-like conditions in vitro, immortalized mouse brain endothelial (bEND3) cells were exposed to 6 hours of hypoxia and 3 hours of reoxygeneation with or without the administration of tPA at a dose of 20 μ/ml. Reoxygenation was initiated by adding glucose (4.5 g/L)-containing phenol red-free DMEM for 3 hours at 37° C. in 95% air and 5% CO2. The cells were treated with various concentrations progesterone for 24 hours before hypoxia/reperfusion (H/R). BBB integrity was evaluated by transendothelial membrane electrical resistance (TEER) measurement, MMP-9 activity, and the alteration of tight junction proteins following in vitro H/R injury.

[7] = system: claudin-5; test: Claudin-5 in H/R-treated bEND3 cells (Western blot); format: cell-based, mouse; details: tPA with H/R
Experimental: as §6
Peri-infarct cortical tissue is processed for protein analysis. Tissues are homogenized in T-per (Pierce, Rockford, Ill.) containing protease inhibitor cocktail (P8340, Sigma). Homogenates are centrifuged for 15 minutes at 13,000 g. […] Intensity of the bands is measured by an Image Gauge version. […]
as §7

[8] = system: MMP-9; test: Active MMP-9 fluorometric FRET peptide assay of ischemic cortex lysates; format: in vivo, rat; details: 24 hours after ischemia; tPA at 4.5 hours; vs control and tMCAO groups
Experimental: A Fluorimetric SensoLyte™ 490 kit (AnaSpec Corp., San Jose, Calif. USA) is used to quantify the specific enzymetic activity of active MMP-9 by using a fluorescence resonance energy transfer peptide containing a fluorescent donor and quenching acceptor (Lin, Hou et al. 2008). The samples (100 μg) are placed in a 96-well plate containing 50 μl of assay buffer. The proteolytic resonance energy transfer peptide is expressed as a fold change in fluorescence intensity at excitation of 355 nm/emission of 460 nm.
For in vivo evaluation, Male SD rats were subjected to MCAO, reperfused at 4.5 hours and then treated with tPA only (5 mg/kg body weight via femoral vein) at 4.5 hours post-stroke or with progesterone (intraperitoneally) at 2 hours post-stroke plus tPA at 4.5 hours post-stroke. Rats were killed at 24 hours post-ischemia and their brains perfused for evaluation of cerebral hemorrhage, brain swelling, BBB permeability, MMP-9 activity, and the alteration of tight junction proteins.
To directly determine MMP-9 activity after ischemia, proteolytic activity of MMP-9 was measured using a fluorescence resonance energy transfer peptide. […] Consistent with the Western blot results, exposure of cells to H/R and tPA for 9 hours reduced the detected levels of occludin, as compared to control bEND 3 cells, while MMP-9 levels were increased in cells exposed to H/R and tPA for 9 hours.

Row | SMILES | Expression of MMP-2 (immunohistochemistry) [1] | Expression of MMP-2 (Western blot) [1] | MMP-2 activity/levels (gelatin zymography) [1] | Expression of MMP-9 (immunohistochemistry) [2] | Expression of MMP-9 (Western blot) [2] | MMP-9 activity/levels (gelatin zymography) [2] | Levels of serum IgG in ischemic cortex [3] | Detected levels of occludin (immunofluorescence) ([4]; bEND3 cells exposed to H/R and tPA for 9 hours, progesterone pretreatment) | Expression of occludin (Western blot) ([4]; bEND3 cells, tPA with H/R) | MMP-9 levels [5] | H/R-induced decrease of TEER ([6]; pretreatment with 5, 10 or 20 μM, H/R without tPA) | TEER values compared to untreated ([6]; progesterone 20 μM, H/R with tPA (FIG. 3C)) | Expression of 23-kDa claudin-5 (Western blot) [7] | MMP-9 activity (FRET peptide) [8]
1 | CC(=O)[C@H]1CC[C@H]2[C@@H]3CC[C@H]4C[C@H](O)CC[C@]4(C)[C@H]3CC[C@]12C [allopregnanolone, 3α-hydroxy-5α-pregnan-20-one] | reduced | decreased | decreased | reduced | decreased | decreased |  |  |  |  |  |  |  | 
2 | CC(=O)[C@H]1CC[C@H]2[C@@H]3CCC4=CC(=O)CC[C@]4(C)[C@H]3CC[C@]12C [progesterone, pregn-4-ene-3,20-dione] | reduced | decreased | decreased | reduced | decreased | decreased | reduced | completely inhibited | significantly prevented the decrease | completely inhibited | significantly prevented | significantly higher | significantly prevented the decrease | inhibited
